Read-outs that look alike come from different tables or passages of the source.
Key:
[1] = biological target: T1, human GRP receptor (BB2) (Homo sapiens, UniProt P30550); assay: BB2 binding assay ([125I][Tyr4]bombesin displacement, CHO-K1 membranes)
T1 construct: expressed in transfected cells; membranes prepared from the cells
Experimental: (§1) In the following experiments, measurement of BB1 and BB2 binding was as follows. CHO-K1 cells stably expressing cloned human NMB (for (BB1 assay) and GRP receptors (for BB2 assay) were routinely grown in Ham's F12 culture medium supplemented with 10% foetal calf serum and 2 mM glutamine. For binding experiments, cells were harvested by trypsinization, and stored frozen at −70° C. in Ham's F12 culture medium containing 5% DMSO until required. On the day of use, cells were thawed rapidly, diluted with an excess of culture medium, and centrifuged for 5 minutes at 2000 g. Cells were resuspended in 50 mM Tris-HCl assay buffer (pH 7.4 at 21° C., containing 0.02% BSA, 40 μg/mL bacitracin, 2 μg/mL chymostatin, 4 μg/mL leupeptin, and 2 μM phosphoramidon), counted, and polytronned (setting 5, 10 sec) before centrifuging for 10 minutes at 28,000 g. The final pellet was resuspended in assay buffer to a final cell concentration of 1.5×10^5/mL. For binding assays, […] aliquots of membranes were incubated with [^125I][Tyr^4]bombesin (<0.1 nM) in the presence and absence of test compounds (final assay volume 250 μL) for 60 minutes and 90 minutes for NMB and GRP receptors, respectively. Nonspecific binding was defined by 1 μM bombesin. Assays were terminated by rapid filtration under vacuum onto Whatman GF/C filters presoaked in 0.2% PEI for >2 hours, and washed 50 mM Tris-HCl (pH 6.9 at 21° C.; 6×1 mL). Radioactivity bound was determined using a gamma counter.
(§2) All competition data was analysed using nonlinear regression utilizing iterative curve-plotting procedures in Prism® (GraphPad Software Inc., San Diego, USA). IC50 values were corrected to Ki values using the Cheng-Prusoff equation (Cheng Y., Prusoff W. H., Biochem. Pharmacol. 22: 3099-3108, 1973). obtained are listed in Table 1.

[2] = biological target: T2, human NMB receptor (BB1) (Homo sapiens, UniProt P28336); assay: BB1 binding assay ([125I][Tyr4]bombesin displacement, CHO-K1 membranes)
T2 construct: expressed in transfected cells; membranes prepared from the cells
T2 sequence (P28336 whole entry): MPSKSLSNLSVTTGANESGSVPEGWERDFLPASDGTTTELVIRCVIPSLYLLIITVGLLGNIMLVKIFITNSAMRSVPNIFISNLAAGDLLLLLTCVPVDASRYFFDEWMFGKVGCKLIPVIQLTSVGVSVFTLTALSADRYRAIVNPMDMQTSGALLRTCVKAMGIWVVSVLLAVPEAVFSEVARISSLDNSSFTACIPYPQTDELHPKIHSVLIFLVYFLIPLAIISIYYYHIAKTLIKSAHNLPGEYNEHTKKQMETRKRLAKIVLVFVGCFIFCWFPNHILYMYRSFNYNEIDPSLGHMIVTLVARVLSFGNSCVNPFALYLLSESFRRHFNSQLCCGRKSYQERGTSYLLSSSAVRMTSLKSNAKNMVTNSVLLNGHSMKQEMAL
Experimental: as §1, §2

[3] = Table 3, N-acyl derivatives of Intermediate III-7
[4] = second 'TABLE 4', N-terminal urethane derivatives of Intermediate III-7

T1 sequence (P30550 whole entry): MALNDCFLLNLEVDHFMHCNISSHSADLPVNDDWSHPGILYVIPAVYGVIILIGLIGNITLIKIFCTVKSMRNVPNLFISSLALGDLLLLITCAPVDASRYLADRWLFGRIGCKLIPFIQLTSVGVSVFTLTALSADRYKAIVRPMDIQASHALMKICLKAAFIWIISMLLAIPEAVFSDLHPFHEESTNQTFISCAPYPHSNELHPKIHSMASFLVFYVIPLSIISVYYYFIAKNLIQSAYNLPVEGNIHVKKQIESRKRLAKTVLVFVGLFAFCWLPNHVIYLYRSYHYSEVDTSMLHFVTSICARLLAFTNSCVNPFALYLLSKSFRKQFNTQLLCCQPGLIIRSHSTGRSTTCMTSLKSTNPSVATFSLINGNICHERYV

| IC50 [1, 3] | IC50 [2, 3] | Compound | further results |
| --- | --- | --- | --- |
| > 10000 nM | 1270 nM | C[C@@](Cc1c[nH]c2ccccc12)(NC(=O)c1cccc(Cl)c1)C(=O)NCC1(c2ccccn2)CCCCC1 [Example 39, 3-Chloro-N—{(S)-2-(1H-indol-3-yl)-1-methyl-1-[(1-pyridin-2-yl-cyclohexyl-methyl)-carbamoyl]-ethyl}-benzamide] | – |
| – | – | C[C@@](Cc1c[nH]c2ccccc12)(NS(=O)(=O)c1cccc2ccccc12)C(=O)NCC1(c2ccccn2)CCCCC1 [Example 115, (S)-3-(1H-indol-3-yl)-2-methyl-2-(naphthalene-1-sulfonylamino)-N-(1-pyridin-2-yl-cyclohexylmethyl)-propionamide] | IC50 [1]: 1580 nM; IC50 [2]: 185 nM |
| – | – | COc1ccc(COC(=O)N[C@@](C)(Cc2c[nH]c3ccccc23)C(=O)NCC2(c3ccccn3)CCCCC2)cc1OC [Example 88, {(S)-2-(1H-Indol-3-yl)-1-methyl-1-[(1-pyridin-2-yl-cyclohexylmethyl)-carbamoyl]-ethyl}-carbamic acid 3,4-dimethoxy-benzyl ester] | IC50 [1, 4]: > 10000 nM; IC50 [2, 4]: 1760 nM |
| – | – | C[C@@](Cc1c[nH]c2ccccc12)(NC(=O)OCc1ccc(Cl)cc1)C(=O)NCC1(c2ccccn2)CCCCC1 [Example 93, {(S)-2-(1H-Indol-3-yl)-1-methyl-1-[(1-pyridin-2-yl-cyclohexylmethyl)-carbamoyl]-ethyl}-carbamic acid 4-chloro-benzyl ester] | IC50 [1, 4]: > 10000 nM; IC50 [2, 4]: 681 nM |
| > 10000 nM | 4500 nM | C[C@@](Cc1c[nH]c2ccccc12)(NC(=O)c1cccc2[nH]ccc12)C(=O)NCC1(c2ccccn2)CCCCC1 [Example 68, 1H-Indole-4-carboxylic acid {(S)-2-(1H-indol-3-yl)-1-methyl-1-[(1-pyridin-2-yl-cyclohexylmethyl)-carbamoyl]-ethyl}-amide] | – |
| – | – | C[C@@](Cc1c[nH]c2ccccc12)(NS(=O)(=O)c1ccc(F)cc1)C(=O)NCC1(c2ccccn2)CCCCC1 [Example 122] | IC50 [1]: 4160 nM; IC50 [2]: 560 nM |
| > 10000 nM | 1230 nM | Cn1c(C(=O)N[C@@](C)(Cc2c[nH]c3ccccc23)C(=O)NCC2(c3ccccn3)CCCCC2)cc2ccccc21 [Example 70, 1-Methyl-1H-indole-2-carboxylic acid {(S)-2-(1H-indol-3-yl)-1-methyl-1-[(1-pyridin-2-yl-cyclohexylmethyl)-carbamoyl]-ethyl}-amide] | – |
| – | – | C[C@@](Cc1c[nH]c2ccccc12)(NC(=O)OCc1cccc(Cl)c1Cl)C(=O)NCC1(c2ccccn2)CCCCC1 [Example 109, {(S)-2-(1H-Indol-3-yl)-1-methyl-1-[(1-pyridin-2-yl-cyclohexylmethyl)-carbamoyl]-ethyl}-carbamic acid 2,3-dichloro-benzyl ester] | IC50 [1, 4]: > 10000 nM; IC50 [2, 4]: 152 nM |
| > 10000 nM | 1350 nM | C[C@@](Cc1c[nH]c2ccccc12)(NC(=O)c1ccc(Cl)cc1)C(=O)NCC1(c2ccccn2)CCCCC1 [Example 34, 4-Chloro-N—{(S)-2-(1H-indol-3-yl)-1-methyl-1-[(1-pyridin-2-yl-cyclohexyl-methyl)-carbamoyl]-ethyl}-benzamide] | – |
| > 10000 nM | 1440 nM | C[C@@](Cc1c[nH]c2ccccc12)(NC(=O)Cc1cccc(O)c1)C(=O)NCC1(c2ccccn2)CCCCC1 [Example 53, (S)-2-[2-(3-Hydroxy-phenyl)-ethanoylamino]-3-(1H-indol-3-yl)-2-methyl-N-(1-pyridin-2-yl-cyclohexylmethyl)-propionamide] | – |
| – | – | C[C@@](Cc1c[nH]c2ccccc12)(NS(=O)(=O)c1cccc(F)c1)C(=O)NCC1(c2ccccn2)CCCCC1 [Example 126] | IC50 [1]: 2760 nM; IC50 [2]: 407 nM |
| – | – | C[C@@](Cc1c[nH]c2ccccc12)(NC(=O)OCc1ccc(C(F)(F)F)cc1)C(=O)NCC1(c2ccccn2)CCCCC1 [Example 101, {(S)-2-(1H-Indol-3-yl)-1-methyl-1-[(1-pyridin-2-yl-cyclohexylmethyl)-carbamoyl]-ethyl}-carbamic acid 4-trifluoromethyl-benzyl ester] | IC50 [1, 4]: > 10000 nM; IC50 [2, 4]: 1100 nM |
| > 10000 nM | 361 nM | C[C@@](Cc1c[nH]c2ccccc12)(NC(=O)c1ccccc1-n1cccc1)C(=O)NCC1(c2ccccn2)CCCCC1 [Example 81, N—{(S)-2-(1H-Indol-3-yl)-1-methyl-1-[(1-pyridin-2-yl-cyclohexylmethyl)-carbamoyl]-ethyl}-2-pyrrol-1-yl-benzamide] | – |
| > 10000 nM | 1440 nM | C[C@@](Cc1c[nH]c2ccccc12)(NC(=O)Cc1ccsc1)C(=O)NCC1(c2ccccn2)CCCCC1 [Example 56, (S)-3-(1H-Indol-3-yl)-2-methyl-N-(1-pyridin-2-yl-cyclohexylmethyl)-2-(2-thiophen-3-yl-ethanoylamino)-propionamide] | – |
| > 10000 nM | 4580 nM | C[C@@](Cc1c[nH]c2ccccc12)(NC(=O)c1ccccc1[N+](=O)[O-])C(=O)NCC1(c2ccccn2)CCCCC1 [Example 45, N—{(S)-2-(1H-Indol-3-yl)-1-methyl-1-[(1-pyridin-2-yl-cyclohexylmethyl)-carbamoyl]-ethyl}-2-nitro-benzamide] | – |
| – | – | COc1ccc(COC(=O)N[C@@](C)(Cc2c[nH]c3ccccc23)C(=O)NCC2(c3ccccn3)CCCCC2)cc1 [Example 92, {(S)-2-(1H-Indol-3-yl)-1-methyl-1-[(1-pyridin-2-yl-cyclohexylmethyl)-carbamoyl]-ethyl}-carbamic acid 4-methoxy-benzyl ester] | IC50 [1, 4]: > 10000 nM; IC50 [2, 4]: 1610 nM |
| – | – | CC(Cc1c[nH]c2ccccc12)(NS(=O)(=O)c1cc(Cl)sc1Cl)C(=O)NCC1(c2ccccn2)CCCCC1 (centres unmarked) [Example 157] | IC50 [1]: > 10000 nM |
| > 10000 nM | 2710 nM | CN(C)c1ccc(CC(=O)N[C@@](C)(Cc2c[nH]c3ccccc23)C(=O)NCC2(c3ccccn3)CCCCC2)cc1 [Example 83, (S)-2-[2-(4-Dimethylamino-phenyl)-ethanoylamino]-3-(1H-indol-3-yl)-2-methyl-N-(1-pyridin-2-yl-cyclohexylmethyl)-propionamide] | – |
| – | – | Cc1ccc(Oc2ccccc2)c(S(=O)(=O)N[C@@](C)(Cc2c[nH]c3ccccc23)C(=O)NCC2(c3ccccn3)CCCCC2)c1 [Example 152, (S)-3-(1H-indol-3-yl)-2-methyl-2-(5-methyl-2-phenoxy-benzenesulfonylamino)-N-(1-pyridin-2-yl-cyclohexylmethyl)-propionamide] | IC50 [1]: > 10000 nM; IC50 [2]: 76 nM |
| > 10000 nM | – | Dimethylamino-N—{(S)-2-(1H-indol-3-yl)-1-methyl-1-[(1-pyridin-2-yl-cyclohexyl-methyl)-carbamoyl]-ethyl}-benzamide [Example 42] | – |
| > 10000 nM | – | Cc1ccc(C(=O)N[C@@](C)(Cc2c[nH]c3ccccc23)C(=O)NCC2(c3ccccn3)CCCCC2)cc1 [Example 33, N—{(S)-2-(1H-Indol-3-yl)-1-methyl-1-[(1-pyridin-2-yl-cyclohexylmethyl)-carbamoyl]-ethyl}-4-methyl-benzamide] | – |
| – | – | C[C@@](Cc1c[nH]c2ccccc12)(NS(=O)(=O)c1ccc([N+](=O)[O-])cc1)C(=O)NCC1(c2ccccn2)CCCCC1 [Example 123] | IC50 [2]: 515 nM |
| – | – | Cc1noc(C)c1S(=O)(=O)N[C@@](C)(Cc1c[nH]c2ccccc12)C(=O)NCC1(c2ccccn2)CCCCC1 [Example 136] | IC50 [2]: 515 nM |
| – | 1360 nM | C[C@@](Cc1c[nH]c2ccccc12)(NC(=O)c1cc2ccccc2cn1)C(=O)NCC1(c2ccccn2)CCCCC1 [Example 77, Isoquinoline-3-carboxylic acid {(S)-2-(1H-indol-3-yl)-1-methyl-1-[(1-pyridin-2-yl-cyclohexylmethyl)-carbamoyl]-ethyl}-amide] | – |
| – | – | C[C@@](Cc1c[nH]c2ccccc12)(Nc1cccc(-c2ccccc2)n1)C(=O)NCC1(c2ccccn2)CCCCC1 [Example 23, (S)-3-(1H-Indol-3-yl)-2-methyl-2-(6-phenyl-pyridin-2-ylamino)-N-(1-pyridin-2-yl-cyclohexylmethyl)-propionamide] | Ki ([2]; Table 1, human NMB receptor binding affinity, Ki from IC50 by Cheng-Prusoff, read-out: NMB Ki): 3370 nM |
| – | – | C[C@@](Cc1c[nH]c2ccccc12)(NS(=O)(=O)c1cccc(C#N)c1)C(=O)NCC1(c2ccccn2)CCCCC1 [Example 143] | IC50 [2]: 460 nM |
| > 10000 nM | – | C[C@@](Cc1c[nH]c2ccccc12)(NC(=O)c1ccccc1)C(=O)NCC1(c2ccccn2)CCCCC1 [Example 32, N—{(S)-2-(1H-Indol-3-yl)-1-methyl-1-[(1-pyridin-2-yl-cyclohexylmethyl)-carbamoyl]-ethyl}-benzamide] | – |

| Compound | IC50 [1, 3] | IC50 [2, 3] | further results |
| --- | --- | --- | --- |
| (S)-3-(1H-Indol-3-yl)-2-methyl-N-(1-pyridin-2-yl-cyclohexylmethyl)-2-(2-p-tolyl-ethanoylamino)-propionamide [Example 51] | > 10000 nM | 944 nM | – |
